Patent US11685762B2, “Aqueous suspension compositions, formulations, and water dispersible dry compositions comprising 16alpha-bromo-3beta-hydroxy-5alpha-androstan-17-ketone and hydrates, derivatives, and analogs thereof” (SD Chem, Inc., priority 2019, dated 2023)
Marks after values point to notes of the source that are not given here.

Experiments:
[1] = tested on: ICR mice with colitis induced by DSS; test: DSS induced mouse colitis model; assay type: in vivo; conditions: for White blood cell count: Mean ± SD, n = 12; for Macrohage cell count: abdominal macrophages
Experimental: Experimental animals: 72 ICR mice, male and female, 25-29 g body weight before starting the experiment.
Subgrouping: The experimental animals are divided into 6 groups at random, 12 mice in each group: physiological saline group, high dose group (40 mg/kg), moderate dose group (20 mg/kg), low dose group (10 mg/kg) of BEA obtained in Formulation/Composition 1 of the present invention, Dexamethasone (0.1 mg/kg), DSS model group.
Model replication: The experimental mice are […] 3% DSS and fed with water routinely for 7 days, the colitis model is duplicated.
Administration of drug: the mice are injected with the test drug on the same day when DSS are injected.
Experimental animal management: the general physical condition, loose stools, and bloody stools are observed every day.
The fecal occult blood is tested 3 days after injected with drug. The blood tests are done on day 7. The macrophages are counted and their IL-6 and TNF-alpha are determined. Their inflammation and ulcer level are observed. The colon content is taken to smear, stain and then determined the G+/G−. The thymus, spleen, liver are taken to weight and calculate the organ index. Sections of colon are sent for pathological examination.

[2] = tested on: BALB/c male mice sensitized and challenged with OVA; test: Mouse asthma model (OVA challenge, bronchioalveolar lavage cell count); assay type: in vivo; conditions: 0.2 mg/kg per day
Experimental: In this experiment, the BEA formulation is prepared based present invention formulation (Formulation of Composition 1 in Example 1).
18 BALB/c male mice, 8 weeks old are sensitized with two intraperitoneal (IP) administrations, 5 days apart, of 10 μg chicken egg ovalbumin (OVA, grade V; Sigma) emulsified in 1 mg of aluminum hydroxide (Thermo Scientific, Rockford, Ill., USA) in a total volume of 100 μl. Then, after one month mice are challenged via intratracheal (IT) administration of 0.75% OVA. BEA formulation is administered at 0.2 mg/kg dose in an injection volume of 0.1 mL in two different routes of administration (intratracheal and subcutaneous (SC)), one hour after the OVA challenge and one dose per day for up to 7 days. Then, animals are euthanized by exsanguination under pentobarbital anesthesia. The bronchioalveolar lavage (BAL) of the mice are used to determine the total counts of inflammatory cells. Control mice receive saline solution intraperitoneally (IP). All experiments are performed in accordance with INCMN Mexico City regulations. Two independent experiments are performed.

[3] = tested on: Taenia crassiceps; conditions: mice, administration prior to infection with cysticerci; cited from earlier work
[4] = tested on: Entamoeba histolytica; conditions: hamsters; cited from earlier work
[5] = tested on: Vk*MYC Mice; test: Anti-myeloma activity in Vk*MYC mice (M-Spike); conditions: 15 mg/kg/day
Experimental: 3 Vk*MYC Mice are evaluated. […] The M-Spike value are assessed at day 7 and 14 respectively. […] The M-Spike value are assessed at day 7, 14 and 21 respectively.

Work on `C[C@]12CC[C@H](O)C[C@@H]1CC[C@@H]1[C@@H]2CC[C@]2(C)C(=O)[C@H](Br)C[C@@H]12` [BEA, 16alpha-bromo-3beta-hydroxy-5alpha-androstan-17-ketone] yielded a Final weight ([1]; BEA 10 mg/kg) of 26.5 ± 2.6 g, an IL-6/TNF-alpha ([1]; BEA 10 mg/kg) of 9.5 ± 7.9 and an IL-6 level ([1]; BEA 10 mg/kg) of 551.7 ± 391.4 pg/mL. The Spleen index ([1]; BEA 10 mg/kg) was 5.7 ± 2.0 mg/g, the TNFa level ([1]; BEA 10 mg/kg) was 49.5 ± 23.2 pg/mL and the “The length of colon” value ([1]; BEA 10 mg/kg) was 10.4 ± 1.0 cm. The Thymus index ([1]; BEA 10 mg/kg) was 2.7 ± 1.0 mg/g, the Weight before fasting ([1]; BEA 10 mg/kg) was 28.2 ± 2.8 g and the “number of animals with bloody stools” value ([1]; BEA 10 mg/kg) was 5/12. The “number of animals with fecal occult blood (3rd day)” value (from here on “number of animals … (3rd day)”) ([1]; BEA 10 mg/kg) was 7/12, the “White blood cell count” value ([1]; BEA 10 mg/kg) was 5.9 ± 1.4 X10^9 and the Macrohage cell count ([1]; BEA 10 mg/kg) was 28.3 ± 8.9 X10^5. The Final weight ([1]; BEA 20 mg/kg) was 25.7 ± 1.8 g, the IL-6/TNF-alpha ([1]; BEA 20 mg/kg) was 16.8 ± 8.0 and the IL-6 level ([1]; BEA 20 mg/kg) was 589.1 ± 227.1 pg/mL. The Spleen index ([1]; BEA 20 mg/kg) was 5.9 ± 1.0 mg/g, the TNFa level ([1]; BEA 20 mg/kg) was 49.1 ± 37.0 pg/mL and the “The length of colon” value ([1]; BEA 20 mg/kg) was 10.5 ± 0.9 cm. For the same molecule, the Thymus index ([1]; BEA 20 mg/kg) was 2.9 ± 0.7 mg/g, the Weight before fasting ([1]; BEA 20 mg/kg) was 27.7 ± 2.5 g and the “number of animals with bloody stools” value ([1]; BEA 20 mg/kg) was 5/12. For the same molecule, the “number of animals … (3rd day)” value ([1]; BEA 20 mg/kg) was 7/12, the “White blood cell count” value ([1]; BEA 20 mg/kg) was 5.2 ± 1.5# X10^9 and the Macrohage cell count ([1]; BEA 20 mg/kg) was 32.3 ± 1.3# X10^5. It also gave a Final weight ([1]; BEA 40 mg/kg) of 25.6 ± 1.7 g, an IL-6/TNF-alpha ([1]; BEA 40 mg/kg) of 12.7 ± 8.6 and an IL-6 level ([1]; BEA 40 mg/kg) of 370.8 ± 219.1 pg/mL. For the same molecule, the Spleen index ([1]; BEA 40 mg/kg) was 6.4 ± 1.2 mg/g, the TNFa level ([1]; BEA 40 mg/kg) was 31.4 ± 15.1 pg/mL and the “The length of colon” value ([1]; BEA 40 mg/kg) was 9.2 ± 0.8 cm. The Thymus index ([1]; BEA 40 mg/kg) was 3.1 ± 0.7 mg/g, the Weight before fasting ([1]; BEA 40 mg/kg) was 27.6 ± 1.7 g and the “number of animals with bloody stools” value ([1]; BEA 40 mg/kg) was 6/12. The “number of animals … (3rd day)” value ([1]; BEA 40 mg/kg) was 6/12, the “White blood cell count” value ([1]; BEA 40 mg/kg) was 5.9 ± 2.9 X10^9 and the Macrohage cell count ([1]; BEA 40 mg/kg) was 24.6 ± 3.4 X10^5. The “Inflammatory Cell Number in bronchioalveolar lavage” value (shortened to “Inflammatory Cell Number”) ([2]; IT, Day 3) was 4.61 × 10^4, the “Inflammatory Cell Number” value ([2]; IT, Day 7) was 5.99 × 10^4 and the “Inflammatory Cell Number” value ([2]; SC, Day 3) was 4.07 × 10^4. For the same molecule, the “Inflammatory Cell Number” value ([2]; SC, Day 7) was 1.06 × 10^5, the “reduction of parasite load compared with controls” value [3] was 50% and the “reduction on the development of amoebic liver abscesses” value [4] was 20%. For the same molecule, the “reduction of M-Spike” value [5] was 40%.

`C[C@@H]1C[C@H]2[C@@H]3CCC4=CC(=O)C=C[C@]4(C)[C@@]3(F)[C@@H](O)C[C@]2(C)[C@@]1(O)C(=O)CO` [Dex, Dexamethasone, reference compound] gave an IL-6/TNF-alpha ([1]; Dexamethasone 0.1 mg/kg) of 15.8 ± 8.7, an IL-6 level ([1]; Dexamethasone 0.1 mg/kg) of 791.7 ± 234.3 pg/mL and a Spleen index ([1]; Dexamethasone 0.1 mg/kg) of 7.9 ± 1.7 mg/g. For the same molecule, the TNFa level ([1]; Dexamethasone 0.1 mg/kg) was 92.4 ± 42.1 pg/mL, the “The length of colon” value ([1]; Dexamethasone 0.1 mg/kg) was 9.9 ± 1.2 cm and the Thymus index ([1]; Dexamethasone 0.1 mg/kg) was 0.9 ± 0.4 mg/g. The “number of animals with bloody stools” value ([1]; Dexamethasone 0.1 mg/kg) was 8/12, the “number of animals … (3rd day)” value ([1]; Dexamethasone 0.1 mg/kg) was 9/12 and the “White blood cell count” value ([1]; Dexamethasone 0.1 mg/kg) was 5.0 ± 2.6# X10^9. For the same molecule, the Macrohage cell count ([1]; Dexamethasone 0.1 mg/kg) was 24.4 ± 5.7 X10^5.
